Key:
[1] = molecular target: human RORγt ligand binding domain (RORγt LBD) (Homo sapiens (Human), UniProt P51449); experiment: RORγt ThermoFluor® assay (thermal shift binding); conditions: for Kd: read-out: ThermoFluor® Assay, Kd
Procedure, shortened: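 Binding was inferred from thermal stabilisation (ΔTm) of the E. coli-expressed RORγt LBD (0.065 mg/mL), monitored by 1,8-ANS (60 μM) emission at 500 nm during a 1 °C/min ramp. Buffer was Hepes 100 mM pH 7.0 with NaCl, GSH and Tween-20.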

full-length human RORγt [2] = molecular target: T1, full-length human RORγt (Homo sapiens (Human), UniProt P51449); experiment: RORγt (full-length human) reporter assay, Conditions A; type: cell-based; conditions: for IC50: read-out: RORγt (FL) Reporter Assay A, IC50; for inhibition at 6 µM: read-out: RORγt (FL) Reporter Assay A, % inhibition @ 6 μM
Excerpt: RORγt (Full-Length Human) Reporter Assay:
Cells used in this assay were transiently co-transfected with three different plasmids, one expressing the GAL4-DNA binding domain (DBD)-RORγt fusion protein under control of a CMV promoter (NH2-Gal4-DBD:RORC-COOH in pCMV-BD, Stratagene #211342), and two reporter plasmids—the firefly luciferase reporter under control of a GAL4 promoter (pFR-Luc 2×GAL4) and Renilla luciferase reporter under control of CMV promoter (pRL-CMV, Promega # E2261). The full-length coding sequence was used for human RORγt, i.e., nucleotides 142-1635 of human RORγt, transcript variant 2, NCBI Accession: NM_001001523.1 (SEQ ID NO:1). HEK293T cells were plated at 35000 per well in 96-well plate in medium of MEM with 8.6% FBS. After 18-22 hours incubation, the transfection was carried out by using a PEI solution with 170.5 ng total DNA/well (50 ng pCMV-BD-ROR plus 20 ng of pFR-Luc reporter and 0.5 ng of pRL-CMV reporter plus 100 ng Carrier DNA (Clontech #630440) for each well). 4-6 hours after transfection, cells were treated with compounds for overnight in the medium with final concentration of FBS 1.1% and DMSO 0.1%. After overnight (16 to 20 hours) incubation, media were removed and cells were lysed with 20 μL 1× Passive Lysis Buffer (Promega) for 10-15 minutes. Luminescence was measured using a BMG LUMIstar OPTIMA plate reader, after addition of 75 μL/well firefly luciferase buffer, followed by 75 μL/well Renilla luciferase buffer. To calculate the effect of compounds on RORγt activity, firefly values were normalized against values of DMSO only and values of reference compound at saturating concentration, then further normalized against Renilla signals. IC50s were generated by plotting final Renilla normalized data against compound concentration and percent inhibition was calculated against DMSO control.

[3] = test system: IL-17 production by CD4 T cells; experiment: Human Th17 assay; type: cell-based; conditions: read-out: Human Th17 Assay, IC50
Excerpt: The human Th17 assay tests the effect of RORγt modulatory compounds on IL-17 production by CD4 T cells under conditions which favor Th17 differentiation. Total CD4^+ T cells were isolated from the peripheral blood mononuclear cells (PBMC) of healthy donors using a CD4^+ T cell isolation kit II, following the manufacturer's instructions (Miltenyi Biotec). Cells were resuspended in a medium of RPMI-1640 supplemented with 10% fetal bovine serum, penicillin, streptomycin, glutamate, and β-mercaptoethanol and were added to 96-well plates at 1.5×10^5 per 100 μL per well. 50 μL of compound at titrated concentrations in DMSO were added into each well at final DMSO concentration at 0.2%. Cells were incubated for 1 hour, then 50 μL of Th17 cell differentiation medium was added to each well. The final concentrations of antibodies and cytokines (R&D Systems) in differentiation medium were: 3×10^6/mL anti-CD3/CD28 beads (prepared using human T cell activation/expansion kit, Miltenyi Biotec), 10 μg/mL anti-IL4, 10 μg/mL anti-IFNγ, 10 ng/mL IL1β, 10 ng/mL IL23, 50 ng/mL IL6, 3 ng/mL TGFβ and 20 U/mL IL2. Cells were cultured at 37° C. and 5% CO2 for 3 days. Supernatants were collected and the accumulated IL-17 in culture was measured by using MULTI-SPOT® Cytokine Plate following manufacture's instruction (Meso Scale Discovery). The plate was read using Sector Imager 6000, and IL-17 concentration was extrapolated from the standard curve. The IC50s were determined by GraphPad.

full-length human RORγt [4] = molecular target: T1, full-length human RORγt; experiment: RORγt (full-length human) reporter assay, Conditions B or C; type: cell-based; conditions: for IC50: read-out: RORγt (FL) Reporter Assay B or C, IC50
Procedure, shortened: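 Readout is dual luciferase: firefly (GAL4-driven) normalized to DMSO-only and saturating-reference controls, then to CMV-Renilla. Full-length human RORγt fused to GAL4-DBD was transiently expressed in HEK293T; compound exposure ran overnight (16-20 h) starting 4-6 h after transfection, final FBS 1.3%, DMSO 0.1%.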

mice = conditions: cited from earlier work
obese diabetic mice = conditions: cited from earlier work

T1 sequence (P51449 other isoform, or with tags, fused parts or gaps): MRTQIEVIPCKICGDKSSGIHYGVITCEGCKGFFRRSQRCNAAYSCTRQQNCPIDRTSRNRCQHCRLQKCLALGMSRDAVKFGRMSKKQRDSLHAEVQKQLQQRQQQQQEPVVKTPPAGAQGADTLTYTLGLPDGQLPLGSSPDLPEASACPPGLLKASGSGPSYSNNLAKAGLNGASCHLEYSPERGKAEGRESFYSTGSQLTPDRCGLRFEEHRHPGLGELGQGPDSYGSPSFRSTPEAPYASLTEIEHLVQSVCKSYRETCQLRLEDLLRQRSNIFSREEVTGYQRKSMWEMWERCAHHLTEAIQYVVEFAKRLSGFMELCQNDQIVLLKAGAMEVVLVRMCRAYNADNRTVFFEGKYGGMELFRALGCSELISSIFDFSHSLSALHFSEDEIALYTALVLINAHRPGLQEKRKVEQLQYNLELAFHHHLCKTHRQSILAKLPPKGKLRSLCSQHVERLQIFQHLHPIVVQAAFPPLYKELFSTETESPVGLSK
Sequence of human RORγt ligand binding domain (RORγt LBD) (P51449 other isoform, or with tags, fused parts or gaps): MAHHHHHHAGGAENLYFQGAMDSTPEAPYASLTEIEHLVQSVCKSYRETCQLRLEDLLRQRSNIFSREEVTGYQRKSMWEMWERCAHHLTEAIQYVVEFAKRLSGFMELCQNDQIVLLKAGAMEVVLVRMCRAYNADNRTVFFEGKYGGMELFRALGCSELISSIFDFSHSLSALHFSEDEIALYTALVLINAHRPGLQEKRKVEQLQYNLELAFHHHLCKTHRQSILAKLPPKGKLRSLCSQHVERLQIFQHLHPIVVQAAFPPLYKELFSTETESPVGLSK

Row | SMILES | Kd [1] [nM] | IC50 (full-length human RORγt [2]; Conditions A) [nM] | IC50 [3] [nM] | inhibition at 6 µM (full-length human RORγt [2]; Conditions A) [%] | also measured
1 | CC(C)(O)CNC(=O)c1nc(C(=O)N2CCC(F)CC2)c(-c2cnc(NC3CCCCC3)cc2C(F)(F)F)s1 [Example 3, 5-(6-(Cyclohexylamino)-4-(trifluoromethyl)pyridin-3-yl)-4-(4-fluoropiperidine-1-carbonyl)-N-(2-hydroxy-2-methylpropyl)thiazole-2-carboxamide] | 9.6 | 35 | 40 | – | RORγt (FL) Reporter Assay A, % inhibition (value marked **) (full-length human RORγt [2]; Conditions A, marked **: footnote not shown): 106** %
2 | C[C@H]1CCCCN1C(=O)c1nc(C(=O)NC2CCS(=O)(=O)CC2)sc1-c1cnc(NC2CCCCC2)cc1C1CC1 [Example 75, (S)-5-(6-(Cyclohexylamino)-4-cyclopropylpyridin-3-yl)-N-(1,1-dioxidotetrahydro-2H-thiopyran-4-yl)-4-(2-methylpiperidine-1-carbonyl)thiazole-2-carboxamide] | – | – | 14 | – | RORγt (FL) Reporter Assay B or C, % inhibition (value marked **) (full-length human RORγt [4]; Conditions B or C, marked **: footnote not shown): 108** %; IC50 (full-length human RORγt [4]; Conditions B or C): 7 nM
3 | CC(C)Nc1cc(C(F)(F)F)c(-c2sc(C(=O)NCC(C)(C)O)nc2C(=O)N2CCC(F)CC2)cn1 [Example 12, 4-(4-Fluoropiperidine-1-carbonyl)-N-(2-hydroxy-2-methylpropyl)-5-(6-(isopropylamino)-4-(trifluoromethyl)pyridin-3-yl)thiazole-2-carboxamide] | 63 | – | 190 | 92 | fold improvement in RORγt Thermofluor® binding assay activity ([1]; compared to Comparator Example 3): over 800 fold; IC50 (full-length human RORγt [2]; HEK293T cells): 850 nM
4 | CC(=O)Nc1nc(C)c(S(=O)(=O)Nc2ccc(C(O)(C(F)(F)F)C(F)(F)F)cc2)s1 [SR1001] | – | – | – | – | Th17-dependent learned helplessness (mice): reduced Th17-dependent learned helplessness
5 | C[C@H]1CCCN1C(=O)c1nc(C(=O)NCC(C)(C)O)sc1-c1cnc(NC2CCCCC2)cc1C(F)(F)F [Example 19, (S)-5-(6-(Cyclohexylamino)-4-(trifluoromethyl)pyridin-3-yl)-N-(2-hydroxy-2-methylpropyl)-4-(2-methylpyrrolidine-1-carbonyl)thiazole-2-carboxamide] | 4.4 | 32 | 40 | 99 | –
6 | CC(=O)N1CCN(Cc2ccc(-c3ccc(C(O)(C(F)(F)F)C(F)(F)F)cc3)cc2)CC1 [SR1555] | – | – | – | – | body weight (obese diabetic mice): reduced; fat mass (obese diabetic mice): significant reduction; food intake (obese diabetic mice): modest reduction; insulin sensitivity (obese diabetic mice): improved
7 | CC(C)(O)CNC(=O)c1nc(C(=O)N2CCC(F)CC2)c(-c2cnc(NC3CCCCC3)cc2C2CC2)s1 [Example 64, 5-(6-(Cyclohexylamino)-4-cyclopropylpyridin-3-yl)-4-(4-fluoropiperidine-1-carbonyl)-N-(2-hydroxy-2-methylpropyl)thiazole-2-carboxamide] | 17 | 63 | 220 | 96 | –
8 | C[C@H]1CCCCN1C(=O)c1nc(C(=O)NCC(C)(C)O)sc1-c1cnc(NC2CCCCC2)cc1C1CC1 [Example 76, (S)-5-(6-(Cyclohexylamino)-4-cyclopropylpyridin-3-yl)-N-(2-hydroxy-2-methylpropyl)-4-(2-methylpiperidine-1-carbonyl)thiazole-2-carboxamide] | – | – | 20 | – | IC50 (full-length human RORγt [4]; Conditions B or C): 3.8 nM; inhibition at 6 µM (full-length human RORγt [4]; read-out: RORγt (FL) Reporter Assay B or C, % inhibition @ 6 μM, Conditions B or C, @ 6 μM): 108%
9 | C[C@H]1CCCCN1C(=O)c1nc(C(=O)NCC(C)(C)O)sc1-c1cnc(NC2CCCCC2)cc1C(F)(F)F [Example 5, (S)-5-(6-(Cyclohexylamino)-4-(trifluoromethyl)pyridin-3-yl)-N-(2-hydroxy-2-methylpropyl)-4-(2-methylpiperidine-1-carbonyl)thiazole-2-carboxamide] | 0.25 | 9 | – | 104 | –
10 | CC(C)(O)CNC(=O)c1nc(C(=O)N2CCC(F)CC2)c(-c2cnc(NC3CCC(F)(F)CC3)cc2C(F)(F)F)s1 [Example 18, 5-(6-((4,4-Difluorocyclohexyl)amino)-4-(trifluoromethyl)pyridin-3-yl)-4-(4-fluoropiperidine-1-carbonyl)-N-(2-hydroxy-2-methylpropyl)thiazole-2-carboxamide] | 80 | 620 | – | 106 | –
11 | CC(C)(O)CNC(=O)c1nc(C(=O)N2CCC(F)CC2)c(-c2cnc(NC3CCCC3)cc2C(F)(F)F)s1 [Example 10, 5-(6-(Cyclopentylamino)-4-(trifluoromethyl)pyridin-3-yl)-4-(4-fluoropiperidine-1-carbonyl)-N-(2-hydroxy-2-methylpropyl)thiazole-2-carboxamide] | 8.1 | 71 | – | 108 | –
12 | CC[C@H](Nc1cc(C(F)F)c(-c2sc(C(=O)NCC(C)(C)O)nc2C(=O)N2CCCC[C@@H]2C)cn1)C(F)(F)F [Example 91, 5-(4-(Difluoromethyl)-6-(((S)-1,1,1-trifluorobutan-2-yl)amino)pyridin-3-yl)-N-(2-hydroxy-2-methylpropyl)-4-((S)-2-methylpiperidine-1-carbonyl)thiazole-2-carboxamide] | – | – | 19 | – | RORγt (FL) Reporter Assay B or C, % inhibition (value marked *) (full-length human RORγt [4]; Conditions B or C, marked *: footnote not given): 96* %

From patent publication US10975068B2, “6-aminopyridin-3-yl thiazoles as modulators of RORγT” (Janssen Pharmaceutica NV, priority 2016, dated 2021)
